Source: patent publication US20100076015A1, “Aminopyridine Derivatives” (VANTIA LIMITED, priority 2008, published 2010)

Molecular target: T1, Human KLK1 (Homo sapiens, UniProt P06870)
T1 construct: purchased Callbiochem (Calbiochem)
Assay: Determination of the IC50 for KLK1 (fluorogenic substrate H-DVal-Leu-Arg-AFC)
Assay type: biochemical
Settings: 37° C.
Summary of the method: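 Human KLK1 incubated at 37 °C with fluorogenic substrate H-DVal-Leu-Arg-AFC and a range of test compound concentrations. Residual activity was taken as initial reaction rate from absorbance change at 410 nm, and the IC50 derived from it.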

T1 sequence (P06870 25-262): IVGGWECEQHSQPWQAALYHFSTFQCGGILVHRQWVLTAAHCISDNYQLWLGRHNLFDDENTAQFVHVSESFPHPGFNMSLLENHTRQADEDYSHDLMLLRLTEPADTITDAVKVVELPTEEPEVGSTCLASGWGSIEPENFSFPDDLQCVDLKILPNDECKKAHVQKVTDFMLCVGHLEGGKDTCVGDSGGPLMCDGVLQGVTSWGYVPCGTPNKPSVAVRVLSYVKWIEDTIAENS

Row | SMILES | IC50 [nM]
1 | CCC(C)[C@H](C(=O)N[C@@H](Cc1ccc(Cl)c(Cl)c1)C(=O)NCc1ccc(N)nc1)N(C)C(C)C (stereo partly drawn) [Example 155, (R)-2-(Isopropyl-methyl-amino)-3-methyl-pentanoic acid [(S)-1-[(6-amino-pyridin-3-ylmethyl)-carbamoyl]-2-(3,4-dichloro-phenyl)-ethyl]-amide] | 63.3
2 | CC(C)N(C)CC(=O)N[C@@H](Cc1ccc(F)c(F)c1)C(=O)NCc1ccc(N)nc1 [Example 156, (S)—N-(6-Amino-pyridin-3-ylmethyl)-3-(3,4-difluoro-phenyl)-2-[2-(isopropyl-methyl-amino)-acetylamino]-propionamide] | 80.6
3 | CCCN(CCC)CC(=O)N[C@@H](Cc1ccc(F)c(F)c1)C(=O)NCc1ccc(N)nc1 [Example 158, (S)—N-(6-Amino-pyridin-3-ylmethyl)-3-(3,4-difluoro-phenyl)-2-(2-dipropylamino-acetylamino)-propionamide] | 114
4 | CC(C)CN(CC(=O)N[C@@H](Cc1ccc(F)c(F)c1)C(=O)NCc1ccc(N)nc1)CC(C)C [Example 159, (S)—N-(6-Amino-pyridin-3-ylmethyl)-3-(3,4-difluoro-phenyl)-2-(2-diisobutylamino-acetylamino)-propionamide] | 165
5 | Nc1ccc(CNC(=O)[C@H](Cc2ccc(F)c(F)c2)NC(=O)CNCCc2ccccc2)cn1 [Example 160, (S)—N-(6-Amino-pyridin-3-ylmethyl)-3-(3,4-difluoro-phenyl)-2-(2-phenethylamino-acetylamino)-propionamide] | 185
6 | CN(CCc1ccccc1)CC(=O)N[C@@H](Cc1ccc(F)c(F)c1)C(=O)NCc1ccc(N)nc1 [Example 161, (S)—N-(6-Amino-pyridin-3-ylmethyl)-3-(3,4-difluoro-phenyl)-2-[2-(methyl-phenethyl-amino)-acetylamino]-propionamide] | 93.5
7 | CN(C/C=C/c1ccccc1)CC(=O)N[C@@H](Cc1ccc(F)c(F)c1)C(=O)NCc1ccc(N)nc1 [Example 162, (S)—N-(6-Amino-pyridin-3-ylmethyl)-3-(3,4-difluoro-phenyl)-2-{2-[methyl-((E)-3-phenyl-allyl)-amino]-acetylamino}-propionamide] | 38.1
8 | CN(CC(=O)N[C@@H](Cc1ccc(F)c(F)c1)C(=O)NCc1ccc(N)nc1)Cc1ccc(Cl)cc1 [Example 163, (S)—N-(6-Amino-pyridin-3-ylmethyl)-2-{2-[(4-chloro-benzyl)-methyl-amino]-acetylamino}-3-(3,4-difluoro-phenyl)-propionamide] | 56.5
9 | CN(CC(=O)N[C@@H](Cc1ccc(F)c(F)c1)C(=O)NCc1ccc(N)nc1)Cc1cccc(Cl)c1 [Example 164, (S)—N-(6-Amino-pyridin-3-ylmethyl)-2-{2-[(3-chloro-benzyl)-methyl-amino]-acetylamino}-3-(3,4-difluoro-phenyl)-propionamide] | 345
10 | CN(CC(=O)N[C@@H](Cc1ccc(F)c(F)c1)C(=O)NCc1ccc(N)nc1)Cc1ccccc1Cl [Example 165, (S)—N-(6-Amino-pyridin-3-ylmethyl)-2-{2-[(2-chloro-benzyl)-methyl-amino]-acetylamino}-3-(3,4-difluoro-phenyl)-propionamide] | 83.5
11 | COc1ccc(CN(C)CC(=O)N[C@@H](Cc2ccc(F)c(F)c2)C(=O)NCc2ccc(N)nc2)cc1 [Example 166, (S)—N-(6-Amino-pyridin-3-ylmethyl)-3-(3,4-difluoro-phenyl)-2-{2-[(4-methoxy-benzyl)-methyl-amino]-acetylamino}-propionamide] | 726
12 | CCCCN(C)CC(=O)N[C@@H](Cc1ccc(F)c(F)c1)C(=O)NCc1ccc(N)nc1 [Example 167, (S)—N-(6-Amino-pyridin-3-ylmethyl)-2-[2-(butyl-methyl-amino)-acetylamino]-3-(3,4-difluoro-phenyl)-propionamide] | 258
13 | CC(C)CN(C)CC(=O)N[C@@H](Cc1ccc(F)c(F)c1)C(=O)NCc1ccc(N)nc1 [Example 168, (S)—N-(6-Amino-pyridin-3-ylmethyl)-3-(3,4-difluoro-phenyl)-2-[2-(isobutyl-methyl-amino)-acetylamino]-propionamide] | 291
14 | CN(CC(=O)N[C@@H](Cc1ccc(F)c(F)c1)C(=O)NCc1ccc(N)nc1)CC1CCCCC1 [Example 169, (S)—N-(6-Amino-pyridin-3-ylmethyl)-2-[2-(cyclohexylmethyl-methyl-amino)-acetylamino]-3-(3,4-difluoro-phenyl)-propionamide] | 334
15 | Nc1ccc(CNC(=O)[C@H](Cc2ccc(F)c(F)c2)NC(=O)CN2CCCCC2)cn1 [Example 170, (S)—N-(6-Amino-pyridin-3-ylmethyl)-3-(3,4-difluoro-phenyl)-2-(2-piperidin-1-yl-acetylamino)-propionamide] | 16.6
16 | Nc1ccc(CNC(=O)[C@H](Cc2ccc(F)c(F)c2)NC(=O)CN2CCOCC2)cn1 [Example 171, (S)—N-(6-Amino-pyridin-3-ylmethyl)-3-(3,4-difluoro-phenyl)-2-(2-morpholin-4-yl-acetylamino)-propionamide] | 1.3

Row | SMILES | IC50 [nM]
17 | Nc1ccc(CNC(=O)[C@H](Cc2ccc(F)c(F)c2)NC(=O)CN2CCc3ccccc3C2)cn1 [Example 172, (S)—N-(6-Amino-pyridin-3-ylmethyl)-3-(3,4-difluoro-phenyl)-2-(2-3,4-dihydro-1H-isoquinolin-2-yl-acetylamino)-propionamide] | 12.7
18 | Nc1ccc(CNC(=O)[C@H](Cc2ccc(F)c(F)c2)NC(=O)CN2CCCc3ccccc32)cn1 [Example 173, (S)—N-(6-Amino-pyridin-3-ylmethyl)-3-(3,4-difluoro-phenyl)-2-(2-3,4-dihydro-2H-quinolin-1-yl-acetylamino)-propionamide] | 78.3
19 | CN(CC(=O)N[C@@H](Cc1ccc(F)c(F)c1)C(=O)NCc1ccc(N)nc1)c1ccccc1 [Example 174, (S)—N-(6-Amino-pyridin-3-ylmethyl)-3-(3,4-difluoro-phenyl)-2-[2-(methyl-phenyl-amino)-acetylamino]-propionamide] | 90
20 | CC(C)N(C)[C@H](C)C(=O)N[C@@H](Cc1ccc(F)c(F)c1)C(=O)NCc1ccc(N)nc1 [Example 175, (R)—N-[(S)-1-[(6-Amino-pyridin-3-ylmethyl)-carbamoyl]-2-(3,4-difluoro-phenyl)-ethyl]-2-(isopropyl-methyl-amino)-propionamide] | 2
21 | CC(C)CN(C)[C@@H](C)C(=O)N[C@@H](Cc1ccc(F)c(F)c1)C(=O)NCc1ccc(N)nc1 [Example 177, (S)—N-[(S)-1-[(6-Amino-pyridin-3-ylmethyl)-carbamoyl]-2-(3,4-difluoro-phenyl)-ethyl]-2-(isobutyl-methyl-amino)-propionamide] | 1.9
22 | CCC(C)[C@H](C(=O)N[C@@H](Cc1ccc(F)c(F)c1)C(=O)NCc1ccc(N)nc1)N(C)C (stereo partly drawn) [Example 178, (R)-2-Dimethylamino-3-methyl-pentanoic acid [(S)-1-[(6-amino-pyridin-3-ylmethyl)-carbamoyl]-2-(3,4-difluoro-phenyl)-ethyl]-amide] | 15.9
23 | CN(C)[C@@H](C(=O)N[C@@H](Cc1ccc(F)c(F)c1)C(=O)NCc1ccc(N)nc1)C(C)(C)C [Example 179, (R)—N-[(S)-1-[(6-Amino-pyridin-3-ylmethyl)-carbamoyl]-2-(3,4-difluoro-phenyl)-ethyl]-2-dimethylamino-3,3-dimethyl-butyramide] | 3.01
24 | CC(C)N(C)[C@H](C)C(=O)N[C@@H](Cc1ccc(F)cc1)C(=O)NCc1ccc(N)nc1 [Example 180, (R)—N-[(S)-1-[(6-Amino-pyridin-3-ylmethyl)-carbamoyl]-2-(4-fluoro-phenyl)-ethyl]-2-(isopropyl-methyl-amino)-propionamide] | 7.9
25 | CC(C)N(C)[C@@H](C)C(=O)N[C@@H](Cc1ccc(F)cc1)C(=O)NCc1ccc(N)nc1 [Example 181, (S)—N-[(S)-1-[(6-Amino-pyridin-3-ylmethyl)-carbamoyl]-2-(4-fluoro-phenyl)-ethyl]-2-(isopropyl-methyl-amino)-propionamide] | 1.1
26 | CCC(C)[C@H](C(=O)N[C@@H](Cc1ccc(F)cc1)C(=O)NCc1ccc(N)nc1)N(C)C (stereo partly drawn) [Example 182, (R)-2-Dimethylamino-3-methyl-pentanoic acid [(S)-1-[(6-amino-pyridin-3-ylmethyl)-carbamoyl]-2-(4-fluoro-phenyl)-ethyl]-amide] | 21.2
27 | CN(C)[C@@H](C(=O)N[C@@H](Cc1ccc(F)cc1)C(=O)NCc1ccc(N)nc1)C(C)(C)C [Example 183, (R)—N-[(S)-1-[(6-Amino-pyridin-3-ylmethyl)-carbamoyl]-2-(4-fluoro-phenyl)-ethyl]-2-dimethylamino-3,3-dimethyl-butyramide] | 5.1
28 | CC(C)N[C@H](Cc1ccccc1)C(=O)N[C@@H](Cc1ccc(F)c(F)c1)C(=O)NCc1ccc(N)nc1 [Example 184, (R)—N-[(S)-1-[(6-Amino-pyridin-3-ylmethyl)-carbamoyl]-2-(3,4-difluoro-phenyl)-ethyl]-2-isopropylamino-3-phenyl-propionamide] | 44.4
29 | CN(C)[C@H](Cc1ccccc1)C(=O)N[C@@H](Cc1ccc(F)c(F)c1)C(=O)NCc1ccc(N)nc1 [Example 185, (R)—N-[(S)-1-[(6-Amino-pyridin-3-ylmethyl)-carbamoyl]-2-(3,4-difluoro-phenyl)-ethyl]-2-dimethylamino-3-phenyl-propionamide] | 14.5
30 | Cc1nc(N)ccc1CNC(=O)[C@H](CC1CCCC2CCCCC21)NC(=O)[C@H](N)C(C)C (stereo partly drawn) [Example 186, (R)-2-Amino-N-[(S)-1-[(6-amino-2-methyl-pyridin-3-ylmethyl)-carbamoyl]-2-(decahydro-naphthalen-1-yl)-ethyl]-3-methyl-butyramide] | 0.81
31 | CCC(C)[C@@H](N)C(=O)N[C@@H](CC1CCCC2CCCCC21)C(=O)NCc1ccc(N)nc1C (stereo partly drawn) [Example 187, (R)-2-Amino-3-methyl-pentanoic acid [(S)-1-[(6-amino-2-methyl-pyridin-3-ylmethyl)-carbamoyl]-2-(decahydro-naphthalen-1-yl)-ethyl]-amide] | 0.71
